Source: PubChem BioAssay (NCI)
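Dose response: 5 concentrations. Exposure: 48 h. Format: 96-well plates. Endpoint: linear interpolation; highest concentration if not reached. TGI: concentration producing complete growth inhibition.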

Key:
Test in all cases: growth of human tumour cells (NCI), 48 h
HCT-116 colon = tested on: HCT-116 colon
OVCAR-4 ovarian = tested on: OVCAR-4 ovarian
MOLT-4 leukemia = tested on: MOLT-4 leukemia
RPMI-8226 leukemia = tested on: RPMI-8226 leukemia
SF-295 CNS = tested on: SF-295 CNS
CCRF-CEM leukemia = tested on: CCRF-CEM leukemia
EKVX NSCLC = tested on: EKVX NSCLC
UACC-62 melanoma = tested on: UACC-62 melanoma
K-562 leukemia = tested on: K-562 leukemia
MALME-3M melanoma = tested on: MALME-3M melanoma
UO-31 renal = tested on: UO-31 renal
SW-620 colon = tested on: SW-620 colon
HOP-62 NSCLC = tested on: HOP-62 NSCLC
KM12 colon = tested on: KM12 colon
NCI-H522 lung = tested on: NCI-H522 lung
SK-MEL-2 melanoma = tested on: SK-MEL-2 melanoma
SNB-19 CNS = tested on: SNB-19 CNS
TK-10 renal = tested on: TK-10 renal
DU-145 prostate = tested on: DU-145 prostate
IGROV1 ovarian = tested on: IGROV1 ovarian
HOP-92 NSCLC = tested on: HOP-92 NSCLC
NCI/ADR-RES ovarian = tested on: NCI/ADR-RES ovarian
SK-OV-3 ovarian = tested on: SK-OV-3 ovarian
SK-MEL-5 melanoma = tested on: SK-MEL-5 melanoma
SN12C renal = tested on: SN12C renal
OVCAR-3 ovarian = tested on: OVCAR-3 ovarian
NCI-H23 lung = tested on: NCI-H23 lung
HS 578T breast = tested on: HS 578T breast
M14 melanoma = tested on: M14 melanoma
NCI-H460 lung = tested on: NCI-H460 lung
ACHN renal = tested on: ACHN renal
BT-549 breast = tested on: BT-549 breast
MCF7 breast = tested on: MCF7 breast
SK-MEL-28 melanoma = tested on: SK-MEL-28 melanoma
U251 CNS = tested on: U251 CNS
PC-3 prostate = tested on: PC-3 prostate
HT29 colon = tested on: HT29 colon
OVCAR-5 ovarian = tested on: OVCAR-5 ovarian
LOX IMVI melanoma = tested on: LOX IMVI melanoma
HCC-2998 colon = tested on: HCC-2998 colon
A549 NSCLC = tested on: A549 NSCLC
SF-268 CNS = tested on: SF-268 CNS
RXF 393 renal = tested on: RXF 393 renal
A498 renal = tested on: A498 renal
MDA-MB-435 = tested on: MDA-MB-435
T-47D breast = tested on: T-47D breast
OVCAR-8 ovarian = tested on: OVCAR-8 ovarian
CAKI-1 renal = tested on: CAKI-1 renal
MDA-MB-231 breast = tested on: MDA-MB-231 breast
COLO 205 colon = tested on: COLO 205 colon
SF-539 CNS = tested on: SF-539 CNS
UACC-257 melanoma = tested on: UACC-257 melanoma
HCT-15 colon = tested on: HCT-15 colon
HL-60(TB) leukemia = tested on: HL-60(TB) leukemia
MDA-N = tested on: MDA-N
SNB-75 CNS = tested on: SNB-75 CNS
786-0 renal = tested on: 786-0 renal
NCI-H226 lung = tested on: NCI-H226 lung

`COC(=O)C1=C(C(=O)OC)SC2(S1)C1=C(CCC1)SC(C(=O)OC)=C2C(=O)OC` showed a TGI (HCT-116 colon) of 3.65 µM, a TGI (OVCAR-4 ovarian) of 28.9 µM and a TGI (MOLT-4 leukemia) of 16.8 µM. It also gave a TGI (RPMI-8226 leukemia) greater than 100 µM, a TGI (SF-295 CNS) of 28.9 µM and a TGI (CCRF-CEM leukemia) of 12.5 µM. For the same compound, the TGI (EKVX NSCLC) was 29 µM, the TGI (UACC-62 melanoma) was 34 µM and the TGI (K-562 leukemia) was greater than 100 µM. For the same compound, the TGI (MALME-3M melanoma) was 36 µM, the TGI (UO-31 renal) was 22.7 µM and the TGI (SW-620 colon) was 37.5 µM. For the same compound, the TGI (HOP-62 NSCLC) was 26.2 µM, the TGI (KM12 colon) was 32.1 µM and the TGI (NCI-H522 lung) was 9.08 µM. It also gave a TGI (SK-MEL-2 melanoma) of 35.8 µM, a TGI (SNB-19 CNS) of 36.8 µM and a TGI (TK-10 renal) of 29.1 µM. The TGI (DU-145 prostate) was 15.8 µM, the TGI (IGROV1 ovarian) was 26.6 µM and the TGI (HOP-92 NSCLC) was 22.5 µM. It also gave a TGI (NCI/ADR-RES ovarian) of 39 µM, a TGI (SK-OV-3 ovarian) of 30.5 µM and a TGI (SK-MEL-5 melanoma) of 36 µM. It also gave a TGI (SN12C renal) of 23.4 µM, a TGI (OVCAR-3 ovarian) of 24.6 µM and a TGI (NCI-H23 lung) of 37 µM. The TGI (HS 578T breast) was 35.4 µM, the TGI (M14 melanoma) was 35.3 µM and the TGI (NCI-H460 lung) was 20.2 µM. The TGI (ACHN renal) was 24.8 µM, the TGI (BT-549 breast) was 31.3 µM and the TGI (MCF7 breast) was 22.4 µM. The TGI (SK-MEL-28 melanoma) was 25.3 µM, the TGI (U251 CNS) was 29.2 µM and the TGI (PC-3 prostate) was 23.3 µM. The TGI (HT29 colon) was 18.5 µM, the TGI (OVCAR-5 ovarian) was 34.6 µM and the TGI (LOX IMVI melanoma) was 15.3 µM. For the same compound, the TGI (HCC-2998 colon) was 33 µM, the TGI (A549 NSCLC) was 32.8 µM and the TGI (SF-268 CNS) was 34.4 µM. For the same compound, the TGI (RXF 393 renal) was 16.7 µM, the TGI (A498 renal) was 22.7 µM and the TGI (MDA-MB-435) was 26 µM. It also gave a TGI (T-47D breast) of 46.3 µM, a TGI (OVCAR-8 ovarian) of 24.6 µM and a TGI (CAKI-1 renal) of 18.1 µM. It also gave a TGI (MDA-MB-231 breast) of 33.4 µM, a TGI (COLO 205 colon) of 42 µM and a TGI (SF-539 CNS) of 4.32 µM. It also gave a TGI (UACC-257 melanoma) of 31.8 µM, a TGI (HCT-15 colon) of 21.5 µM and a TGI (HL-60(TB) leukemia) greater than 100 µM. It also gave a TGI (MDA-N) of 29.6 µM.

Compound `C=CC(O)(CBr)CCC(Br)C(C)(C)Cl` (stereo not given) has a TGI (HCT-116 colon) greater than 10 µM, a TGI (OVCAR-4 ovarian) greater than 10 µM and a TGI (MOLT-4 leukemia) greater than 10 µM. For the same compound, the TGI (RPMI-8226 leukemia) was greater than 10 µM, the TGI (SF-295 CNS) was greater than 10 µM and the TGI (CCRF-CEM leukemia) was greater than 10 µM. For the same compound, the TGI (EKVX NSCLC) was greater than 10 µM, the TGI (K-562 leukemia) was greater than 10 µM and the TGI (MALME-3M melanoma) was greater than 10 µM. The TGI (UO-31 renal) was greater than 10 µM, the TGI (SW-620 colon) was greater than 10 µM and the TGI (HOP-62 NSCLC) was greater than 10 µM. It also gave a TGI (KM12 colon) greater than 10 µM, a TGI (NCI-H522 lung) greater than 10 µM and a TGI (SNB-75 CNS) greater than 10 µM. The TGI (SK-MEL-2 melanoma) was greater than 10 µM, the TGI (SNB-19 CNS) was greater than 10 µM and the TGI (TK-10 renal) was greater than 10 µM. It also gave a TGI (DU-145 prostate) greater than 10 µM, a TGI (IGROV1 ovarian) greater than 10 µM and a TGI (HOP-92 NSCLC) greater than 10 µM. For the same compound, the TGI (NCI/ADR-RES ovarian) was greater than 10 µM, the TGI (SK-OV-3 ovarian) was greater than 10 µM and the TGI (SK-MEL-5 melanoma) was greater than 10 µM. The TGI (SN12C renal) was greater than 10 µM, the TGI (OVCAR-3 ovarian) was greater than 10 µM and the TGI (NCI-H23 lung) was greater than 10 µM. The TGI (HS 578T breast) was greater than 10 µM, the TGI (M14 melanoma) was greater than 10 µM and the TGI (NCI-H460 lung) was greater than 10 µM. For the same compound, the TGI (ACHN renal) was greater than 10 µM, the TGI (BT-549 breast) was greater than 10 µM and the TGI (MCF7 breast) was greater than 10 µM. The TGI (SK-MEL-28 melanoma) was greater than 10 µM, the TGI (U251 CNS) was greater than 10 µM and the TGI (PC-3 prostate) was greater than 10 µM. The TGI (HT29 colon) was greater than 10 µM, the TGI (OVCAR-5 ovarian) was greater than 10 µM and the TGI (HCC-2998 colon) was greater than 10 µM. The TGI (A549 NSCLC) was greater than 10 µM, the TGI (SF-268 CNS) was greater than 10 µM and the TGI (RXF 393 renal) was greater than 10 µM. For the same compound, the TGI (A498 renal) was greater than 10 µM, the TGI (786-0 renal) was greater than 10 µM and the TGI (MDA-MB-435) was greater than 10 µM. It also gave a TGI (T-47D breast) greater than 10 µM, a TGI (OVCAR-8 ovarian) greater than 10 µM and a TGI (CAKI-1 renal) greater than 10 µM. It also gave a TGI (MDA-MB-231 breast) greater than 10 µM, a TGI (COLO 205 colon) greater than 10 µM and a TGI (SF-539 CNS) greater than 10 µM. The TGI (UACC-257 melanoma) was greater than 10 µM, the TGI (HCT-15 colon) was greater than 10 µM and the TGI (NCI-H226 lung) was greater than 10 µM. For the same compound, the TGI (MDA-N) was greater than 10 µM.
